# From patent publication US20060142397A1, “Use of a pparalpha agonist and metormin for decreasing the serum triglycerides” (priority 2002, published 2006)
# Like-named read-outs stand apart in the source and are kept apart here. Marks after values point to notes of the source that are not given here.
# Experiments:
# ob/ob mice = conditions: for Serum triglycerides T0 + 10: after 10 days of treatment once a day, 100 mg/kg of each drug; for Serum triglycerides T0 + 10 / Serum triglycerides T0: mean ± sem, n=10; for Serum triglycerides T0: beginning of study (T0, baseline), groups later treated once a day with 100 mg/kg of each drug
# Description: Studies were designed to evaluate the effects of fenofibrate, a PPARα agonist, and metformin as a combination therapy, on triglycerides level in ob/ob mice.
# Male homozygous C57BL/Ks/Ola/Hsd/lep ob/ob mice were stabilized for 2 weeks in the animal facilities in a temperature-, humidity- and light-controlled room (21-23° C., 12-12 h light-dark cycle). […] After acclimatization, they were randomized into groups of 10 based on body weight, as follows:
# Met 100=mice treated once a day with metformin, 100 mg/kg
# Feno 100=mice treated once a day with fenofibrate, 100 mg/kg
# Feno100-Met100=mice treated once a day with fenofibrate, 100 mg/kg and metformin, 100 mg/kg.
# Serum triglycerides (expressed in g/l) were measured at the beginning and the end of the study for each group.
# Statistics: All data were subjected to covariance analysis followed by Tukey test.
# db/db mice = conditions: for Triglycerides % var. T0/T15: 14 days gavage; for Triglycerides T0: T0 (baseline); for Triglycerides T0 / Triglycerides T15: mean ± SEM; for Triglycerides T15: T15 after 14 days gavage
# Description: Studies were designed to evaluate the effects of fenofibrate, a PPARα agonist, and metformin as a combination therapy, on triglycerides level in db/db mice.
# Male 11/12 weeks old […] J Rj-db (db/db) mice (Janvier, France) were housed in a temperature (19.5-24.5° C.), relative humidity (40-70%) and 12-12 h light-dark cycle (light 7:00 a.m. to 7:00 p.m.)-controlled room, with ad libitum access to filtered (0.22 μm) tap-water and irradiated pelleted laboratory chow (ref. A04, U.A.R., France) throughout the study. They were housed 5 per cage and a 21-day acclimatization period was observed.
# The mice were treated during 14 consecutive days (T1 to T14), with morning and afternoon gavages with the various treatments as described below.
# At T15, the mice were weighed and blood samples collected without anticoagulant by retro-orbital puncture under CO2/O2 anesthesia.
# Triglycerides were measured at T0 and T15 using the multi-parametric analyzer.
# Veh/Veh=Vehicle in morning/Vehicle in the afternoon
# A300/Veh=metformin, 300 mg/kg in the morning/Vehicle in the afternoon
# B100/B100=fenofibrate, 100 mg/kg in the morning/fenofibrate, 100 […]
# A300B100/B100=metformin, 300 mg/kg in the morning, and fenofibrate, 100 mg/kg in the morning/fenofibrate, 100 mg/kg in the afternoon
# A100/Veh=metformin, 100 mg/kg in the morning/Vehicle in the afternoon
# B30/B30=fenofibrate, 30 mg/kg in the morning/fenofibrate, 30 mg/kg in the afternoon
# A100B30/B30=metformin, 100 mg/kg in the morning, and fenofibrate, 30 mg/kg […]/fenofibrate, 30 mg/kg in the afternoon
# Zucker rats = conditions: obese Zucker rats, 30 days, fenofibrate 30 mg/kg p.o. once daily and/or metformin 150 mg/kg p.o. twice daily; for Body weight gain: mean ± SEM, n=8
# Description: Studies were designed to evaluate the effects of fenofibrate, a PPARα agonist, and metformin as a combination therapy, on body weight in Zucker rats.
# Male homozygous Zucker rats of 9 to 11 weeks of age and their lean controls were randomised into groups of 8, based on body weight and fasting plasma insulin levels.
# The experimental groups were: • Lean rats, untreated; • Obese rats, treated with the vehicle p.o., twice daily • Obese rats, treated with Fenofibrate, 30 mg/kg, p.o., once daily • Obese rats, treated with Metformin, 150 mg/kg, p.o., twice daily • Obese rats, treated with Fenofibrate, 30 mg/kg, p.o., once daily and metformin, 150 mg/kg, p.o., twice daily.
# Body weight was recorded every day during 30 days.
# [1] = metformin 100 mg/kg morning and/or fenofibrate 30 mg/kg twice daily
# [2] = metformin 300 mg/kg morning and/or fenofibrate 100 mg/kg morning and afternoon
# [3] = high-dose groups: metformin 300 mg/kg morning and/or fenofibrate 100 mg/kg morning and afternoon
# [4] = low-dose groups: metformin 100 mg/kg morning and/or fenofibrate 30 mg/kg twice daily
smiles,measurement,setting,value
"CC(C)OC(=O)C(C)(C)Oc1ccc(C(=O)c2ccc(Cl)cc2)cc1 [Fenofibrate, fenofibrate]",Serum triglycerides T0 + 10,ob/ob mice,0.69 ± 0.03 g/L
same,Serum triglycerides T0,ob/ob mice,0.72 ± 0.06 g/L
same,Triglycerides % var. T0/T15,db/db mice; [1],−42.3* %
same,Triglycerides % var. T0/T15,db/db mice; [2],−53.5* %
same,Triglycerides T0,db/db mice; [3],1.89 ± 0.13 g/L
same,Triglycerides T0,db/db mice; [4],1.72 ± 0.12 g/L
same,Triglycerides T15,db/db mice; [1],0.97 ± 0.08 g/L
same,Triglycerides T15,db/db mice; [2],0.85 ± 0.08 g/L
same,Body weight gain (% of change vs vehicle treated group),Zucker rats,−26%
same,Body weight gain,Zucker rats,52.0 ± 5.8 g
"CN(C)C(=N)N=C(N)N [Metformin, metformin]",Effect on triglycerides level (in words),"ob/ob mice; 10 days, 100 mg/kg once a day",no effects
same,Serum triglycerides T0 + 10,ob/ob mice,0.74 ± 0.04 g/L
same,Serum triglycerides T0,ob/ob mice,0.68 ± 0.03 g/L
same,Triglycerides % var. T0/T15,db/db mice; [1],7.3° %
same,Triglycerides % var. T0/T15,db/db mice; [2],−3.3° %
same,Effect on triglycerides level (in words),db/db mice; 14 days treatment,no reduction in triglycerides level
same,Triglycerides T0,db/db mice; [3],1.81 ± 0.14 g/L
same,Triglycerides T0,db/db mice; [4],1.68 ± 0.12 g/L
same,Triglycerides T15,db/db mice; [1],1.79 ± 0.16° g/l
same,Triglycerides T15,db/db mice; [2],1.67 ± 0.06 g/L
same,Body weight gain (% of change vs vehicle treated group),Zucker rats,−5%
same,Body weight gain,Zucker rats,67.2 ± 4.0 g
